The values below come from PMC9268102, “Design, Synthesis and Biological Evaluation of 1,3,5-Triazine Derivatives Targeting hA1 and hA3 Adenosine Receptor” (Molecules, 2022).

The target of assay [1] is T1, hA2B AR (Homo sapiens, UniProt P29275).
T1 construct: host or cells: HEK-A2B (HEK-293T-A2B) cell line
T1 sequence (P29275 1-332): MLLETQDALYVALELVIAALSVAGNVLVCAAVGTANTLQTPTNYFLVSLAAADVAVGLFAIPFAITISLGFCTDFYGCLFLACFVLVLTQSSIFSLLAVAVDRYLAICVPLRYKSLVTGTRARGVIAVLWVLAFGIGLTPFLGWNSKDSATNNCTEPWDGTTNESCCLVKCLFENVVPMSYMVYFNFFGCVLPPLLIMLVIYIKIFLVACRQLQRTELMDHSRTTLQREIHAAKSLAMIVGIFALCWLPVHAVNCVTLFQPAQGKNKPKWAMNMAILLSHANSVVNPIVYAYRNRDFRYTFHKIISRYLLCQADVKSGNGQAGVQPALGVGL
The experiment in a line: Radioligand competition binding assay at hA2B AR. The note with it: 10 μM compound; [3H]DPCPX; HEK-293 cells; read-out: Percentage Inhibition (%) at 10 μM, hA2B AR. How it is done: (§1) All the synthesized compounds were screened with radioligand binding assays at hARs. First, the percentage of inhibition was measured by treatment of each hAR subtype with 10 μM of each compound (Table 1).
hA2B AR competition binding experiments were carried out in a multiscreen GF/C 96-well plate. In each well was incubated 25 µg of membranes from Euroscreen HEK-A2B cell line and prepared in laboratory, 25 nM [^3H]-DPCPX (140 Ci/mmol, 1 mCi/mL, Perkin Elmer NET974001MC) and compounds studied according to standard protocol. Non-specific binding was determined in the presence of NECA 1000 µM (Sigma E2397). The reaction mixture (Vt: 250 µL/well) was incubated at 25°C for 30 min, 200 µL was transferred to GF/C 96-well plate (Millipore, Madrid, Spain), and pretreated with binding buffer (Tris-HCl 50 Mm, EDTA 1 mM, MgCl2 5 mM, Bacitracin […], adenosine deaminase 2 U/Ml, pH = 6.5). It was then filtered and washed four times with 250 μL wash buffer (Tris-HCl 50 mM, EDTA 1 mM, MgCl2 5 mM, pH = 6.5), before being measured in a microplate beta scintillation counter (MicrobetaTrilux, PerkinElmer, Madrid, Spain).

The target in assay [2] is T2, hA3 AR (Homo sapiens, UniProt P0DMS8).
T2 sequence (P0DMS8 1-318): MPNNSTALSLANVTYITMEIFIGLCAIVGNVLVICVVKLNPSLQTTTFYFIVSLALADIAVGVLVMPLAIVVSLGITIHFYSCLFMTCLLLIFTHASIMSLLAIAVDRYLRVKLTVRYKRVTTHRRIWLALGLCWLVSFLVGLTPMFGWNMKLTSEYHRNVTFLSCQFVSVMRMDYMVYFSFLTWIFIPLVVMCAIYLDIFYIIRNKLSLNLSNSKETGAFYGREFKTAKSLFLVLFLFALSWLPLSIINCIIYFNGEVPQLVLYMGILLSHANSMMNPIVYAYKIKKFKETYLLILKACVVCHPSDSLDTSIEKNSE
The experiment in a line: Radioligand competition binding assay at hA3 AR. Details: expressed in transfected cells; host or cells: Hela-A3 cell line. The note with it: [3H]NECA; for inhibition at 10 µM: read-out: Percentage Inhibition (%) at 10 μM, hA3 AR. How it is done: as §1
(§2) hA1, hA2A, and hA3 AR competition binding experiments were carried out in a multiscreen GF/C 96-well plate (Millipore, Madrid, Spain) pretreated with binding buffer (Hepes 20 mM, NaCl 100 mM, MgCl2 10 mM, 2 U/mL adenosine deaminase, pH = 7.4 for hA1 AR; Tris-HCl 50 mM, EDTA 1 mM, MgCl2 10 mM, 2 U/mL adenosine deaminase, pH = 7.4 for hA2A AR; and Tris-HCl 50 mM, EDTA 1 mM, MgCl2 5 mM, 2 U/mL adenosine deaminase, pH = 7.4 for hA3 AR, respectively). In each well was incubated 5 µg of membranes from Euroscreen CHO-A1 cell line, 5µg of membranes from Hela-A2A cell line, or 30µg of membranes from Hela-A3 cell line and prepared in laboratory: 1 nM [^3H]-DPCPX (140 Ci/mmol, 1 mCi/Ml, Perkin Elmer NET974001MC) for hA1 AR; 1 nM [^3H]-ZM241385 (50 Ci/mmol, 1 mCi/mL, ARC-ITISA 0884) for hA2A AR; and 10 nM [^3H]-NECA (29.6 Ci/mmol, 1 mCi/mL, Perkin Elmer NET811250UC) for hA3 AR, respectively; and the compounds studied according to standard protocol. Non-specific binding was determined in the presence of R-PIA 10 µM (Sigma P4532) for hA1 AR; of NECA 50 µM (Sigma E2387) for hA2A AR; and of R-PIA 100 µM (Sigma P4532) for hA3 AR, respectively. The reaction mixture (Vt: 200 µL/well) was incubated at 25 °C for 60 min (hA1 AR), 30min (hA2A AR), or 180min (hA3 AR); whereafter it was filtered and washed four times (hA1 and hA2A AR) or six times (hA3 AR) with 250 μL wash buffer (Hepes 20 mM, NaCl 100 mM, MgCl2 10 mM pH = 7.4, for hA1 AR; Tris-HCl 50 mM, EDTA 1 mM, MgCl2 10 mM, pH = 7.4, for hA2A AR; and Tris-HCl 50mM pH = 7.4, for hA3 AR, respectively) before being measured in a microplate beta scintillation counter (MicrobetaTrilux, PerkinElmer, Madrid, Spain).

For assay [3], the target named is T3, hA2A AR (Homo sapiens, UniProt P29274).
T3 construct: expressed in transfected cells; host or cells: Hela-A2A cell line
T3 sequence (P29274 whole entry): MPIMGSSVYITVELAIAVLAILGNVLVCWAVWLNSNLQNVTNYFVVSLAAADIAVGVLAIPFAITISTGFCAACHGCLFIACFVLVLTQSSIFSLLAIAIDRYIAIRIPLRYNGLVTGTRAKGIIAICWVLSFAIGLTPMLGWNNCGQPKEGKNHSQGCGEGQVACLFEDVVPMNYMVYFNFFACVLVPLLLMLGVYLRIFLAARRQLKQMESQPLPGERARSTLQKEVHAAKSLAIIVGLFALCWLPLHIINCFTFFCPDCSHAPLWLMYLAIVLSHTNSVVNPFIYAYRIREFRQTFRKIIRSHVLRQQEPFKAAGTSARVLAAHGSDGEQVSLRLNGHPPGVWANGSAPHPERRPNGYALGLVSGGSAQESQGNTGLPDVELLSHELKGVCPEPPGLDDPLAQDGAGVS
The experiment in a line: Radioligand competition binding assay at hA2A AR. The settings on record: 10 μM compound, [3H]ZM241385, Hela cells; for inhibition at 10 µM: read-out: Percentage Inhibition (%) at 10 μM, hA2A AR. How it is done: as §1, §2

Assay [4] deals with T4, hA1 AR (Homo sapiens, UniProt P30542).
T4 construct: host or cells: CHO-A1 (CHO cells expressing hA1 AR)
T4 sequence (P30542 1-326): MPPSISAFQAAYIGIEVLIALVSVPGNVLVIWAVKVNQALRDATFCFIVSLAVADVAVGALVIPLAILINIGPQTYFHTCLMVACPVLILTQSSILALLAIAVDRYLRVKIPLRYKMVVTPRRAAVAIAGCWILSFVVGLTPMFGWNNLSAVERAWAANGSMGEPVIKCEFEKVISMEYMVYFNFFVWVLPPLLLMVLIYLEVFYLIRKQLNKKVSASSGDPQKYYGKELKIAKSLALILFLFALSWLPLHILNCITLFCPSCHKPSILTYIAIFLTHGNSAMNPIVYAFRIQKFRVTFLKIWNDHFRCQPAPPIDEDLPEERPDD
Description: Radioligand competition binding assay at hA1 AR. The settings on record: for Percentage Inhibition (%) at 10 μM, hA1 AR / inhibition at 10 µM: 10 μM compound; for Percentage Inhibition (%) at 10 μM, hA1 AR / inhibition at 10 µM / Ki: [3H]DPCPX, CHO cells; for inhibition at 10 µM: read-out: Percentage Inhibition (%) at 10 μM, hA1 AR. How it is done:
as §1, §2

Values joined by “and” are separate entries in the source; they are usually repeats but may differ in a detail not shown here. Equal values may be shown once.

With `COc1ccc(Nc2nc(N)nc(-c3ccc(F)c([N+](=O)[O-])c3)n2)cc1F` [Compound 11i, 6-(4-fluoro-3-nitrophenyl)-N^2-(3-fluoro-4-methoxyphenyl)-1,3,5-triazine-2,4-diamine], the inhibition at 10 µM in assay [1] stood at 72 ± 6%; in assay [2] (10 μM compound) it was 83 ± 1%; in assay [3] it was 57 ± 2%; in assay [4], 53 ± 1%. Besides, in assay [4], the “Percentage Inhibition (%) at 10 μM, hA1 AR” value was “inactive”.
Regarding `COc1ccc(Nc2nc(N)nc(-c3ccc(O)cc3)n2)cc1F` [Compound 9a, 4-{4-amino-6-[(3-fluoro-4-methoxyphenyl)amino]-1,3,5-triazin-2-yl}phenol], the inhibition at 10 µM is 72 ± 2% in assay [1], greater than 95% in assay [2] (10 μM compound), 58 ± 1% in assay [3] and 99 ± 1% in assay [4]. Further, the “Percentage Inhibition (%) at 10 μM, hA3 AR” value in assay [2] (10 μM compound, 10 µM) was determined as 97 ± 1%. Also, the Ki in assay [2] was determined as 55.5 nM; in assay [4], 139 nM. Moreover, the “Percentage Inhibition (%) at 10 μM, hA2A AR” value in assay [3] (10 µM) was determined as 56 ± 3%. Besides, the “Selectivity (hA1 AR:hA3 AR)” value in assay [4] (ratio of Ki hA1 AR to Ki hA3 AR) is 2.5 and 2.51.
Regarding `COc1ccc(Nc2nc(N)nc(-c3ccc(OC(F)(F)F)cc3)n2)cc1F` [Compound 11c, N^2-(3-fluoro-4-methoxyphenyl)-6-[4-(trifluoromethoxy)phenyl]-1,3,5-triazine-2,4-diamine], the inhibition at 10 µM in assay [1] came to 27 ± 6%; in assay [2] (10 μM compound) it was 60 ± 1%; in assay [3], 81 ± 1%; in assay [4], 48 ± 4%.
Take `COc1ccc(Nc2nc(N)nc(-c3cc(F)c(O)c(F)c3)n2)cc1F` [Compound 11h, 4-{4-amino-6-[(3-fluoro-4-methoxyphenyl)amino]-1,3,5-triazin-2-yl}-2,6-difluorophenol]: the inhibition at 10 µM in assay [1] stood at 66 ± 6%; in assay [2] (10 μM compound), 79 ± 1%; in assay [3], 26 ± 5%; in assay [4] it was 88 ± 1%. Further, the “Percentage Inhibition (%) at 10 μM, hA1 AR” value in assay [4] was “inactive”.
For the compound `CCOC(=O)c1ccc(-c2nc(N)nc(Nc3ccc(OC)c(F)c3)n2)cc1` [Compound 11g, ethyl-4-{4-amino-6-[(3-fluoro-4-methoxyphenyl)amino]-1,3,5-triazin-2-yl}benzoate], the inhibition at 10 µM in assay [1] was determined as 35 ± 2%; in assay [2] (10 μM compound) it was 78 ± 3%; in assay [3] it was 48 ± 6%; in assay [4], 56 ± 1%.
On the same counts, the results for `COC(=O)c1ccc(-c2nc(N)nc(Nc3ccc(OC)c(F)c3)n2)cc1` [Compound 11f, methyl-4-{4-amino-6-[(3-fluoro-4-methoxyphenyl)amino]-1,3,5-triazin-2-yl}benzoate] are 55 ± 2%, 85 ± 1%, 35 ± 6% and 52 ± 1%.
On the same counts, the results for `COc1ccc(Nc2nc(N)nc(-c3ccc(C(F)(F)F)cc3)n2)cc1F` [Compound 11d, N^2-(3-fluoro-4-methoxyphenyl)-6-[4-(trifluoromethyl)phenyl]-1,3,5-triazine-2,4-diamine] are 93 ± 3%, 79 ± 1%, 30 ± 1% and 74 ± 1%.
The corresponding values for `Nc1nc(Nc2ccc(N3CCCCC3)cc2)nc(-c2ccc(O)cc2)n1` [Compound 9f, 4-(4-amino-6-{[4-(piperidin-1-yl)phenyl]amino}-1,3,5-triazin-2-yl)phenol] are 44 ± 4%, 38 ± 1%, 28 ± 3% and 28 ± 1%.
For `COc1cc(Nc2nc(N)nc(-c3ccc(O)cc3)n2)cc(OC)c1` [Compound 9b, 4-{4-amino-6-[(3,5-dimethoxyphenyl)amino]-1,3,5-triazin-2-yl}phenol], the inhibition at 10 µM stood at 62 ± 2% in assay [1], 93 ± 1% in assay [2] (10 μM compound), 84 ± 4% in assay [3] and 99 ± 1% in assay [4]. For the same compound, the affinity in assay [4] corresponds to a Ki of 69.7 nM.
As to `COc1ccc(Nc2nc(N)nc(-c3ccc(C#N)cc3)n2)cc1F` [Compound 11e, 4-{4-amino-6-[(3-fluoro-4-methoxyphenyl)amino]-1,3,5-triazin-2-yl}benzonitrile], the inhibition at 10 µM in assay [1] was found to be 52 ± 1%; in assay [2] (10 μM compound), 72 ± 3%; in assay [3] it was 50 ± 2%; in assay [4], 45 ± 5%.
Take `Cc1cc(C)cc(Nc2nc(N)nc(-c3ccc(O)cc3)n2)c1` [Compound 9e, 4-{4-amino-6-[(3,5-dimethylphenyl)amino]-1,3,5-triazin-2-yl}phenol]: the inhibition at 10 µM in assay [1] is 42 ± 2%; in assay [2] (10 μM compound), 92 ± 1%; in assay [3] it was 58 ± 3%; in assay [4], greater than 95%. Moreover, the “Percentage Inhibition (%) at 10 μM, hA1 AR” value in assay [4] (10 µM) turned out to be 96 ± 3%. Besides, affinity in assay [4] was put at a Ki of 872 nM.
Turning to `Cc1ccc(Nc2nc(N)nc(-c3ccc(O)cc3)n2)c(C)c1` [Compound 9g, 4-{4-amino-6-[(2,4-dimethylphenyl)amino]-1,3,5-triazin-2-yl}phenol], the inhibition at 10 µM was 47 ± 2% in assay [1], 91 ± 1% in assay [2] (10 μM compound), 80 ± 4% in assay [3] and greater than 95% in assay [4]. Also, the “Percentage Inhibition (%) at 10 μM, hA1 AR” value in assay [4] (10 µM) is given as 99 ± 1%. For the same compound, in assay [4], the affinity, expressed as Ki, was 116 nM.
